Test results taken from ChEMBL document CHEMBL1152352, “Identification of a chromone-based retinoid containing a polyolefinic side chain via facile synthetic routes” (Bioorg Med Chem Lett, 2009).

Experiments:
[1] = biological target: T1, Retinoic acid receptor alpha (Homo sapiens, UniProt P10276); assay: Displacement of radioligand from RARalpha receptor
T1 sequence (P10276 whole entry): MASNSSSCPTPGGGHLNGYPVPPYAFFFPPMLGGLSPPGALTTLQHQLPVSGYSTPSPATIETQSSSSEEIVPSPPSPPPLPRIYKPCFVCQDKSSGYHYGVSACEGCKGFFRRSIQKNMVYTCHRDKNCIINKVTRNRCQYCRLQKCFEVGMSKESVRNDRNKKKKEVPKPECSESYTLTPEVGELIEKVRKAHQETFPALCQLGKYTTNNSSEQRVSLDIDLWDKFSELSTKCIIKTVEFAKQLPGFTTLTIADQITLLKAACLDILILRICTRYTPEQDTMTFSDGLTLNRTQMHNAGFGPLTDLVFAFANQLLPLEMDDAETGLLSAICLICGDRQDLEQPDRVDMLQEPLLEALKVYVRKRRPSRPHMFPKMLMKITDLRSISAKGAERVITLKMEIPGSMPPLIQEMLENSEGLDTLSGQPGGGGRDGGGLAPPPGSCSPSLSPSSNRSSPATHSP

[2] = biological target: T2, Retinoic acid receptor beta (Homo sapiens, UniProt P10826); assay: Displacement of radioligand from RARbeta receptor
T2 sequence (P10826 whole entry): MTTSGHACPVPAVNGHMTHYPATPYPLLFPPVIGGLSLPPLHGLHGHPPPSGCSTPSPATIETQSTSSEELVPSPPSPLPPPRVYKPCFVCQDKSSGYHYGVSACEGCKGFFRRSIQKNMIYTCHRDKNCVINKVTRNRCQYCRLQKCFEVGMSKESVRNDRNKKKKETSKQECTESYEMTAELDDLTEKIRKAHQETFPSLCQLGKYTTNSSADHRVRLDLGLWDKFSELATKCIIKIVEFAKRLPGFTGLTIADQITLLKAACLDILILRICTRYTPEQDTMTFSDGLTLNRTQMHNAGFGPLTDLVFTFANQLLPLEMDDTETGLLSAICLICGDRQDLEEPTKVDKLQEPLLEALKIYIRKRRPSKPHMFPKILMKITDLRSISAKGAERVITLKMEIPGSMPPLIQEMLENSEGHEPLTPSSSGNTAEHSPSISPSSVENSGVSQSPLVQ

[3] = biological target: T3, Retinoic acid receptor gamma (Homo sapiens, UniProt P13631); assay: Displacement of radioligand from RARgamma receptor
T3 sequence (P13631 whole entry): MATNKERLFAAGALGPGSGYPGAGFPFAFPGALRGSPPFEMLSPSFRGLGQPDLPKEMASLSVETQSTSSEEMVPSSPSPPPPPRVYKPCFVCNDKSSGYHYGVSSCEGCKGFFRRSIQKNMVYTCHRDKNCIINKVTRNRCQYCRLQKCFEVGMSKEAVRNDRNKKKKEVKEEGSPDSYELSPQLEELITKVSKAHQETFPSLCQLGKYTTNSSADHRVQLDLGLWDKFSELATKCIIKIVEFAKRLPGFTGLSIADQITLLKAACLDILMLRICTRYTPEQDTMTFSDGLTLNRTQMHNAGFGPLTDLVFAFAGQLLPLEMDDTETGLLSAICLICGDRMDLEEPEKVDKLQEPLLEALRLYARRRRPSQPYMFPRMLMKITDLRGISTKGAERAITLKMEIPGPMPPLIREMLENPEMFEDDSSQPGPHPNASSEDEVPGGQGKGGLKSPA

CC(=C\c1coc2cc3c(cc2c1=O)C(C)(C)CCC3(C)C)/C=C(\C)C(=O)O
IC50 [1]: 0.015 µM | IC50 [2]: 0.04 µM | IC50 [3]: 0.04 µM
